Data on 11 compounds can be found in patent US11168073B2, “3,3-difluoroallylamines or salts thereof and pharmaceutical compositions comprising the same” (YUHAN CORPORATION, priority 2018, dated 2021).

Each structure is given as a SMILES string. Where a name gives a salt, the structure may show the parent alone. Read-outs that look alike come from different tables or passages of the source. Some results are limits rather than exact numbers.

Assay type in all cases: biochemical
One test addresses T1, recombinant human VAP-1 (Homo sapiens, UniProt Q16853).
T1 construct: purchased R&D systems
T1 sequence (Q16853 1-763): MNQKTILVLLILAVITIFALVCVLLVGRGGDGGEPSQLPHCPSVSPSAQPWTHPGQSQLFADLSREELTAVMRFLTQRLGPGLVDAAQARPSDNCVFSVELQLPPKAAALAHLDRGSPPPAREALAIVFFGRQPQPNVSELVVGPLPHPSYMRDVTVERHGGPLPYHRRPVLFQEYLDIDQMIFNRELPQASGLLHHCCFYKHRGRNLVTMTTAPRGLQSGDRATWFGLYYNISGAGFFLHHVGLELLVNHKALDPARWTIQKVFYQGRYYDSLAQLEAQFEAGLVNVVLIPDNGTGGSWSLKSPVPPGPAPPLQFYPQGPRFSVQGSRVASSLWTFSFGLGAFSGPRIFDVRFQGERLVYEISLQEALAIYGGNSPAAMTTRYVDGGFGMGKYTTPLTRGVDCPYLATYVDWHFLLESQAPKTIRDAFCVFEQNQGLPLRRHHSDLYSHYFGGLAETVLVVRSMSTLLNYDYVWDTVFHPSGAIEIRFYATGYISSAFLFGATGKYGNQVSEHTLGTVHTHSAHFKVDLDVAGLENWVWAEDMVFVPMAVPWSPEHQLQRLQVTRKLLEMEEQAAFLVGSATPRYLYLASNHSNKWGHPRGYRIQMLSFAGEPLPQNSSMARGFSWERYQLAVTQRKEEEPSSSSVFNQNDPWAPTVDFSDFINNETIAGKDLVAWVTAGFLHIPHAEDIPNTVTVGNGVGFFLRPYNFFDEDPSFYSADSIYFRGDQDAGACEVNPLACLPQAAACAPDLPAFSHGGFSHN
Put plainly: Activity evaluation on recombinant human VAP-1 (Amplex Red/HRP-coupled hydrogen peroxide assay, benzylamine substrate). The conditions noted are these: read-out: Inhibitory Activity (IC50, nM) human VAP-1. In outline:
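Hydrogen peroxide from benzylamine (1 mM) oxidation by human recombinant VAP-1 detected via HRP-coupled Amplex Red (200 uM) fluorescence, kinetic over 1–2 h. Enzyme and compound preincubated 30 min at 37 °C, pH 7.4 phosphate; 8-point dose response, signal-rate decrease versus DMSO control fitted to four-parameter logistic for IC50.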

For test [1], the target named is T2, recombinant human MAO-A (monoamine oxidase-A) (Homo sapiens, UniProt P21397).
T2 construct: purchased Sigma-Aldrich
T2 sequence (P21397 1-527): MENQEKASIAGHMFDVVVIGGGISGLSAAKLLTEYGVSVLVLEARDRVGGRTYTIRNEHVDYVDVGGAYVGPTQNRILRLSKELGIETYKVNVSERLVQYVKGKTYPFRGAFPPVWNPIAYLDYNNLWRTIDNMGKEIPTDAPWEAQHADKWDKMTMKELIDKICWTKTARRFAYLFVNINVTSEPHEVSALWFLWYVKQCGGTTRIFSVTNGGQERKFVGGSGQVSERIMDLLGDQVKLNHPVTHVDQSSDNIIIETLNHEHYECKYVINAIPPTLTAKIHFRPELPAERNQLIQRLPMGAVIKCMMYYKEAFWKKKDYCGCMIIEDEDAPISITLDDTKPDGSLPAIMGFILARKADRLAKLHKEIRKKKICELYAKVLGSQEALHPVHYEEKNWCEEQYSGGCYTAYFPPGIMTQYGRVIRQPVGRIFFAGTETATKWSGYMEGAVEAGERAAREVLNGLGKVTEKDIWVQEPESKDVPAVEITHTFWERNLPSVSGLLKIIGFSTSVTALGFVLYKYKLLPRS
Put plainly: Activity evaluation on recombinant human MAO-A (Amplex Red/HRP-coupled assay, 0.5 mM tyramine substrate). Conditions: read-out: Inhibitory Activity (IC50, nM) MAO-A. An outline of the steps:
(§1)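 Each oxidase is tested with its own substrate: MAO-A with 0.5 mM tyramine, MAO-B with 1 mM benzylamine, DAO with 1 mM putrescine. After 30 min enzyme-compound preincubation at 37 °C, Amplex Red (200 uM) plus HRP (1 U/mL) reports H2O2 as fluorescence; IC50 is fitted from eight-point curves.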

Test [2] has as its target T3, recombinant human MAO-B (monoamine oxidase-B) (Homo sapiens, UniProt P27338).
T3 construct: purchased Sigma-Aldrich
T3 sequence (P27338 1-520): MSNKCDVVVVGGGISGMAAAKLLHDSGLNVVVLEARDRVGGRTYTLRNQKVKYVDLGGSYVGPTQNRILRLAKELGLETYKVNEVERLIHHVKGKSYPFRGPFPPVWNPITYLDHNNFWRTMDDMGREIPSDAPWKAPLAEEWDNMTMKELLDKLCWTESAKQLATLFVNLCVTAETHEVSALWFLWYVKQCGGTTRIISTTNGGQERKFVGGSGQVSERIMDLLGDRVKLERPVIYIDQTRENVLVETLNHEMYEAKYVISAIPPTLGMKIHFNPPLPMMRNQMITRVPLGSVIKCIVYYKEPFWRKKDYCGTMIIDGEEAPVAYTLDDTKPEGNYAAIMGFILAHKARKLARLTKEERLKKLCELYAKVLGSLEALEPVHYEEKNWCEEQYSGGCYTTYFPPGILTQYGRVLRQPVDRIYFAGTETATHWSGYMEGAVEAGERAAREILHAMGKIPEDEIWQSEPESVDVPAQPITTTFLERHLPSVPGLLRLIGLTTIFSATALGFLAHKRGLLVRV
The test is described as follows: Activity evaluation on recombinant human MAO-B (Amplex Red/HRP-coupled assay, 1 mM benzylamine substrate). The conditions noted are these: read-out: Inhibitory Activity (IC50, nM) MAO-B. An outline of the steps: as §1

Test [3] has as its target T4, recombinant human DAO (diamine oxidase) (Homo sapiens, UniProt P19801).
T4 construct: purchased R&D systems
T4 sequence (P19801 20-751): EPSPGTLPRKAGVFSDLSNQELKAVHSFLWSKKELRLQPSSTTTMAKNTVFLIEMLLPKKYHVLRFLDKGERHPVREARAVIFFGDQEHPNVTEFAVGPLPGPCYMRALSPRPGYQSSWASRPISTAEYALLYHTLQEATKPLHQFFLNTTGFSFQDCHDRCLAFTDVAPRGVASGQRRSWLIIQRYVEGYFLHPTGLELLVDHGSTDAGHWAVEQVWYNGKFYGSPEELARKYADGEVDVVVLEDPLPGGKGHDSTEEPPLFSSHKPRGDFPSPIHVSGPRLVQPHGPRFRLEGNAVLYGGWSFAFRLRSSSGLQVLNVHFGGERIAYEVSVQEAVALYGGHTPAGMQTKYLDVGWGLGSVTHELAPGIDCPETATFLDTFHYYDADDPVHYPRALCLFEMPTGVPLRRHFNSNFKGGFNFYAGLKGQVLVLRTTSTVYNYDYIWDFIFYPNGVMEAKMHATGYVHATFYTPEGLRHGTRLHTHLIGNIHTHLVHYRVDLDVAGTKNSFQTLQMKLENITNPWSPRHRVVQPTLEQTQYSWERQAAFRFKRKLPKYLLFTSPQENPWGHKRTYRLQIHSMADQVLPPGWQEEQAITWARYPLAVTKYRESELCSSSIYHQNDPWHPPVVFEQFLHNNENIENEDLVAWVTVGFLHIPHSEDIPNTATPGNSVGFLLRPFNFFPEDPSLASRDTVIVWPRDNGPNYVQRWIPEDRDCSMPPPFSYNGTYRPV
The test is described as follows: Activity evaluation on recombinant human DAO (Amplex Red/HRP-coupled assay, 1 mM putrescine substrate). Conditions: read-out: Inhibitory Activity (IC50, nM) DAO. In outline: as §1

Setting [4] is: recombinant human VAP-1, 30 min preincubation at 37° C., 1 mM benzylamine.
Setting [5] is: recombinant human VAP-1, benzylamine substrate.

As usually defined, the IC50 is the concentration at which inhibition is half-maximal. For `CC(=O)N1CC=C(c2ccc(Cn3cnn(CC(CN)=C(F)F)c3=O)s2)CC1` [Example 125, 2-[2-(aminomethyl)-3,3-difluoro-allyl]-4-[[5-(1-acetyl-3,6-dihydro-2H-pyridin-4-yl)-2-thienyl]methyl]-1,2,4-triazol-3-one Trifluoroacetate], the IC50 was 2.5 nM at recombinant human VAP-1 (setting [4]), above 100000 nM in test [1] (0.5 mM tyramine), above 100000 nM in test [2] (1 mM benzylamine) and above 100000 nM in test [3] (1 mM putrescine).

Turning to `CN1C(=O)CCc2cc(-c3ccc4sc(Cn5cnn(CC(CN)=C(F)F)c5=O)cc4c3)ccc21` [Example 211, 6-[2-[[1-[2-(aminomethyl)-3,3-difluoro-allyl]-5-oxo-1,2,4-triazol-4-yl]methyl]benzothiophen-5-yl]-1-methyl-3,4-dihydroquinolin-2-one Trifluoroacetate], the IC50 on recombinant human VAP-1 (setting [5]) is 1.1 nM; in test [1] (0.5 mM tyramine substrate) it was 38900 nM; in test [2] (1 mM benzylamine substrate) it was 42700 nM; in test [3] (1 mM putrescine substrate) it was 1860 nM.

Consider `NCC(Cn1ncn(Cc2ccc(-c3ccc4c(c3)C(=O)NCC4)s2)c1=O)=C(F)F` [Example 132, 7-[5-[[1-[2-(aminomethyl)-3,3-difluoro-allyl]-5-oxo-1,2,4-triazol-4-yl]methyl]-2-thienyl]-3,4-dihydro-2H-isoquinolin-1-one Trifluoroacetate], for which the IC50 on recombinant human VAP-1 (setting [4]) is 0.2 nM; in test [1] (0.5 mM tyramine) it was above 100000 nM; in test [2] (1 mM benzylamine), above 100000 nM; in test [3] (1 mM putrescine) it was above 100000 nM.

As for `NCC(Cn1ncn(Cc2ccc(-c3cnn(C(F)F)c3)s2)c1=O)=C(F)F` [Example 183, 2-[2-(aminomethyl)-3,3-difluoro-allyl]-4-[[5-[1-(difluoromethyl)pyrazol-4-yl]-2-thienyl]methyl]-1,2,4-triazol-3-one Trifluoroacetate], the IC50 at recombinant human VAP-1 (setting [5]) is 1.4 nM; in test [1] (0.5 mM tyramine substrate), above 100000 nM; in test [2] (1 mM benzylamine substrate) it was 2100 nM; in test [3] (1 mM putrescine substrate), above 100000 nM.

On to `Cc1cc(-c2ccc3sc(N)nc3c2)cnc1-n1cnn(CC(CN)=C(F)F)c1=O` [Example 226, 4-[5-(2-amino-1,3-benzothiazol-5-yl)-3-methyl-2-pyridyl]-2-[2-(aminomethyl)-3,3-difluoro-allyl]-1,2,4-triazol-3-one Trifluoroacetate], for which the 50% inhibitory concentration (IC50) on recombinant human VAP-1 (setting [5]) is 0.5 nM; in test [1] (0.5 mM tyramine substrate), above 100000 nM; in test [2] (1 mM benzylamine substrate), 11000 nM; in test [3] (1 mM putrescine substrate), above 100000 nM.

For `Cc1cc(-n2cnn(CC(CN)=C(F)F)c2=O)cnc1Br` [Example 13, 2-[2-(aminomethyl)-3,3-difluoro-allyl]-4-(6-bromo-5-methyl-3-pyridyl)-1,2,4-triazol-3-one Trifluoroacetate], the IC50 at recombinant human VAP-1 (setting [4]) is 3.6 nM; in test [1] (0.5 mM tyramine) it was above 100000 nM; in test [2] (1 mM benzylamine), 3600 nM; in test [3] (1 mM putrescine), 910 nM.

Regarding `CN1C(=O)CCc2cc(-c3ccc4cc(Cn5cnn(CC(CN)=C(F)F)c5=O)sc4c3)ccc21` [Example 203, 6-[2-[[1-[2-(aminomethyl)-3,3-difluoro-allyl]-5-oxo-1,2,4-triazol-4-yl]methyl]benzothiophen-6-yl]-1-methyl-3,4-dihydroquinolin-2-one Trifluoroacetate], the IC50 at recombinant human VAP-1 (setting [5]) is 1.5 nM; in test [1] (0.5 mM tyramine substrate) it was above 100000 nM; in test [2] (1 mM benzylamine substrate), 780 nM; in test [3] (1 mM putrescine substrate), 4000 nM.

`Cc1cc(-c2ccc(-n3cnn(CC(CN)=C(F)F)c3=O)cc2F)cc2c1NC(=O)CC2` [Example 29, 6-[4-[1-[2-(aminomethyl)-3,3-difluoro-allyl]-5-oxo-1,2,4-triazol-4-yl]-2-fluoro-phenyl]-8-methyl-3,4-dihydro-1H-quinolin-2-one Trifluoroacetate]: the IC50 on recombinant human VAP-1 (setting [4]) was 0.2 nM; in test [1] (0.5 mM tyramine) it was above 100000 nM; in test [2] (1 mM benzylamine) it was 150 nM; in test [3] (1 mM putrescine) it was 200 nM.

`CN(C)c1ccc(-c2ccc(-n3cnn(CC(CN)=C(F)F)c3=O)cc2F)cn1` [Example 27, 2-[2-(aminomethyl)-3,3-difluoro-allyl]-4-[4-[6-(dimethylamino)-3-pyridyl]-3-fluoro-phenyl]-1,2,4-triazol-3-one Trifluoroacetate]: the IC50 on recombinant human VAP-1 (setting [4]) was 0.4 nM; in test [1] (0.5 mM tyramine), above 100000 nM; in test [2] (1 mM benzylamine), 350 nM; in test [3] (1 mM putrescine) it was 380 nM.

Regarding `CC(=O)c1ccc(-c2ccc(Cn3cnn(CC(CN)=C(F)F)c3=O)s2)cc1` [Example 100, 4-[[5-(4-acetylphenyl)-2-thienyl]methyl]-2-[2-(aminomethyl)-3,3-difluoro-allyl]-1,2,4-triazol-3-one trifluoroacetate], the IC50 was 0.5 nM at recombinant human VAP-1 (setting [4]), above 100000 nM in test [1] (0.5 mM tyramine), 11000 nM in test [2] (1 mM benzylamine) and above 10000 nM in test [3] (1 mM putrescine).

Consider `Cc1cc(-c2ccc(C(=O)N3CCOCC3)cc2)cnc1-n1cnn(CC(CN)=C(F)F)c1=O` [Example 236, 2-[2-(aminomethyl)-3,3-difluoro-allyl]-4-[3-methyl-5-[4-(morpholine-4-carbonyl)phenyl]-2-pyridyl]-1,2,4-triazol-3-one Trifluoroacetate], for which the IC50 at recombinant human VAP-1 (setting [5]) is 0.8 nM; in test [1] (0.5 mM tyramine substrate), above 100000 nM; in test [2] (1 mM benzylamine substrate), above 100000 nM; in test [3] (1 mM putrescine substrate) it was 6700 nM.
